One data set addresses T1, UT-B (Rattus norvegicus, UniProt P97689).
T1 construct: endogenous in cells; host or cells: erythrocytes from male SD rats
T1 sequence (P97689 1-384): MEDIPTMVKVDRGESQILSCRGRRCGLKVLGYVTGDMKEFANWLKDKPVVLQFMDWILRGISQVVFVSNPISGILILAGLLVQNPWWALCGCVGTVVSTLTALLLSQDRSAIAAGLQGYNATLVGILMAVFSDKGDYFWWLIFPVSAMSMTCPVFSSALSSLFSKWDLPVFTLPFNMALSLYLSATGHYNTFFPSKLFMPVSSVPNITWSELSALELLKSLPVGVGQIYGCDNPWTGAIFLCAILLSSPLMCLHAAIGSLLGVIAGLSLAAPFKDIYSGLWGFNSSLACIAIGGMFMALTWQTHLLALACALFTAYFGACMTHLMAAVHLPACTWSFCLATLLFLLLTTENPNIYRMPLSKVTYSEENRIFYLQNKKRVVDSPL
Nature of the data set: Erythrocyte lysis assay for UT-B inhibition, rat erythrocytes. It is filed as cell-based. The protocol:
The erythrocyte lysis assay was modified from a method described previously. Erythrocytes obtained from veins were diluted to a hematocrit value of 2% in hyperosmolar PBS containing 1.25 mol/L urea and 5 mmol/L glucose and incubated at r.t. for 2 h. Then, 99 μL erythrocyte suspension from a reservoir was added to each well of a 96-well round-bottom microplate, then 1 μL of the testing compound (500, 125, 31.25, 7.81, 1.95, 0.488, 0.122, 0.031, 0.0076 μmol/L dissolved in DMSO) was added to erythrocyte suspension and shook it up with microoscillator for 1 min. Following 5 min incubation, 20 μL erythrocyte suspension was transferred into 96-well black microplates preloaded with 180 μL isotonic PBS (10 mM, urea-free). Erythrocyte lysis was monitored at 710 nm optical density (OD710) for 6 min, with lysis rates calculated using control values from the same plate as Equation (1):Lysis (%) = 100 × (Aneg − Atest)/(Aneg − Apos)(1) where Atest is the absorbance value from the test well, Aneg is from a negative no-lysis control well, and Apos is from a positive full-lysis control.

A further data set relates to mice. The data set can be described thus: Diuretic effect of single intragastric administration in mice (metabolic cages). It is filed as in vivo, mouse. As to the method: In a single-dose administration experiment, male wild-type (WT) mice, UT-B^-/- mice, UT-A1^-/- mice, or SD rats were adapted in metabolic cages for 3 d. Food and water were provided ad libitum throughout the experiment. Prior to administration, the bladder of each animal was emptied through gentle abdominal massage, and urine was collected from the metabolic cages every 2 h. Compound E3, suspended in 0.5% CMC-Na at an appropriate concentration, was administered intragastric gavage to the mice or rats (0.16, 0.8, 4, or 20 mg/kg). Vehicle control comprised 0.5% (w/v) CMC-Na. Urinary parameters were determined through the following: volume: Gravimetric analysis (1 g/mL density assumption); osmolality: freezing-point osmometry (Micro-osmometer, […] Associates, Norwood, MA, USA); and urea: diacetyl oxime colorimetry (QuantiChrom® kit, Elabscience, Wuhan, China). In long-term (7 d) diuretic activity experiments, male WT mice, UT-B^-/- mice, UT-A1^-/- mice, and SD rats were acclimatized in metabolic cages (Ugo Basile, Comerio, VA, Italy) for 3 d. Food and water were provided ad libitum throughout the experiment. E3 was suspended in 0.5% CMC-Na and administered at a dose of 4 or 20 mg/kg by intragastric gavage. Urine was collected by metabolic cages every 24 h. Body weight was measured daily. At 4 h after the final administration, a blood sample was obtained by heart puncture. Inner medulla and outer medulla tissue homogenates were prepared, and the supernatant after centrifugation was analyzed for solute concentration and osmolality. Urinary osmolality and urea concentration were measured as above. Serum Na^+, K^+, and Cl^- were measured in a clinical chemistry laboratory, while serum creatinine, ALT, and AST were measured through specific reagent kits (NJJC Bio, Nanjing, China).

The nature of the next data set: Blood stability, mouse. The format is in vitro ADME. To be noted: plasma, n=3. As to the method:
(§1) Plasma from mice, rats, rabbits, and humans was obtained from blood after centrifugation at 3000 r/min for 10 min. Simulated gastric fluid (SGF, pH = 1, containing pepsin) and simulated intestinal fluid (SIF, pH = 6.8, containing trypsin) were configured previously in the experiments. SD rats and mice were collected, and after removing the mucus layer from the small intestine and colon, 20 times the volume of liquid bacterial culture medium was added. An intestinal microbiota suspension was obtained after anaerobic cultivation on a shaking table at 37 °C for 12 h. In the aforementioned systems, E3 was added at a final concentration of 1 μmol/L at 37 °C for different incubation times (0, 10, 20, 30, 60, 120, and 240 min). In liver metabolic stability assays, E3 was incubated with liver microsomes or liver homogenate from mice or rats for 60 min at 37 °C. The stop solution, 5 ng/mL tolbutamide (internal standard, IS) in acetonitrile, was added to stop the metabolic process. Post-centrifugation (18,000× g, 10 min, 4 °C), supernatants were subjected to liquid chromatography–tandem mass spectrometry (LC–MS/MS). Analyte-to-IS peak area ratios quantified residual percentages via Equation (2):Remaining% = (E3peak area/ISpeak area at different time)/(E3peak area/ISpeak area at 0 min) × 100%.(2)

The nature of another data set: Blood stability, rat. The format is in vitro ADME. The note with it: plasma, n=3. As to the method:
as §1

Data set [1] is described as follows: Liver microsome metabolic stability, mouse. The format is in vitro ADME. To be noted: 60 min incubation, 37 °C. The protocol: as §1
A general note: Liver microsomes are vesicles of endoplasmic reticulum, rich in cytochrome P450 enzymes.

The nature of data set [2]: Liver homogenate metabolic stability, rat. It is filed as in vitro ADME. The protocol: as §1
Data set [3] in a line: Intestinal microbiota stability (colon and small intestine), rats and mice together. It is filed as in vitro ADME, SD rats and mice. To be noted: after 4 h. The protocol: as §1
The mark [4] stands for this setting: UT-A1−/− mice, 20 mg/kg single dose.
Setting [5] is: UT-B−/− mice, 20 mg/kg single dose.
Where [6] appears, read: mice, single intragastric gavage.

Results on one compound are retold here after article PMC12024912, “Druggability Studies of Benzene Sulfonamide Substituted Diarylamide (E3) as a Novel Diuretic” (Biomedicines, 2025).

As a reminder, the IC50 is the point on the concentration scale where inhibition reaches its midpoint. One may read the fraction remaining as the share of the starting amount still present when the sample was taken.

Each structure is given as a SMILES string. Where two headings read alike, the source gives them in different places.

With `CC(=O)c1ccc(C(=O)Nc2cccc(NS(=O)(=O)c3ccccc3)c2)o1` [Compound E3, 5-acetyl-N-(3-(phenylsulfonamido)phenyl)furan-2-carboxamide], the “maximum inhibition rate, rat cells” value at UT-B (erythrocyte lysis assay) was “approximately 100%”. Further, the IC50 on UT-B (erythrocyte lysis model, rat, n = 3, means, read-out: IC50 (μM) Rat) came out at 0.01 µM; at UT-B (red blood cell lysis assay, read-out: IC50 for UT-B-promoted urea transport, rats) it was 0.0076 µM. In addition, the “excretion of non-urea solutes” value with mice (setting [4]) is listed as “not significantly changed”; with mice (setting [5]) it was “not significantly changed”; with mice (mice, single intragastric gavage, vs control) it was “not significantly different”. In the data set on mice (setting [4]), the “urea concentration (urine)” value is given as “no significant change”. Moreover, the urinary osmolality entry in the data set on mice (setting [4]) was “no significant change”; with mice (setting [5]), “decreased correspondingly”; in the data set on mice (setting [6]), “decreased”. Further, the urine output entry in the data set on mice (setting [4]) is “no significant change”; in the data set on mice (UT-B−/− mice, 20 mg/kg single dose, 2 h post administration), “markedly increased”; with mice (mice, single intragastric gavage 0.16-20 mg/kg, vs vehicle), “significantly increased”. The urinary urea result in the data set on mice (setting [5]) was “decreased correspondingly”; in the data set on mice (setting [6]), “decreased”. Besides, the fraction remaining at 1 μmol/L in “Blood stability, mouse” came to 45.3%; in the data set “Blood stability, rat”, 46.8%. Moreover, the “remaining amount, mouse liver microsomes” value in data set [1] was determined as 36.8%. Moreover, the “CLhep, rat liver homogenate” value in data set [2] (calculated with 45 mg/g liver, 40 g liver/kg) is reported as 46.4 mL/min/kg. The amount remaining at 1 h in data set [2] (rat, liver homogenate, 60 min incubation, 37 °C, n=3) was 69%. The “E3 remaining with intestinal microbiota (colon and small intestine)” value in data set [3] is on record as “over 82%”.
